Laboratory results published in patent US8962596B2 (Array BioPharma Inc., priority 2010, dated 2015).

What was measured:
Format in all cases: biochemical
Human Tyk2 kinase domain = target: T1, Human Tyk2 kinase domain (Homo sapiens, UniProt P29597); test: Tyk2 Inhibition Assay (Omnia kinase fluorescence peptide substrate assay); conditions: averaged IC50 ranges; assay of Example A; 10 μM (Km app) or 1 mM ATP, 2 nM Tyk2
T1 construct: comprising amino acids 886 to 1187 with 10 additional histidine residues; 10xHis (histidine tag) (C, cleaved yes); made in house
T1 sequence (P29597 886-1187): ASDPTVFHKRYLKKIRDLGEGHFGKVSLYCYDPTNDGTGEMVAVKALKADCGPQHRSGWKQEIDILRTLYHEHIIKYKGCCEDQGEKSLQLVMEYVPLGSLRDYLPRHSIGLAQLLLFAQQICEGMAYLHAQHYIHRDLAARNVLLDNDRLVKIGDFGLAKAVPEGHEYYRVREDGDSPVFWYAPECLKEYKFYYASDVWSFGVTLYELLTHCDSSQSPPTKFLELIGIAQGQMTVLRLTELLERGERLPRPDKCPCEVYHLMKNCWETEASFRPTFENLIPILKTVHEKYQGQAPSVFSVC
Outline: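 2 nM His-tag-cleaved kinase domain (aa 886–1187) with 8 μM Omnia Y12 peptide, 10 μM (Km app) or 1 mM ATP, pH 7.4 HEPES/10 mM MgCl2, 2% DMSO. Fluorescence (ex 360/em 485 nm) every 50 s for 45 min; IC50 from 4-parameter fit of POC, top dose 10 μM.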

JAK1 = target: T2, JAK1 (Homo sapiens, UniProt P23458); test: JAK1 Inhibition Assay (Omnia kinase fluorescence peptide substrate assay); conditions: averaged IC50 ranges; assay of Example B; 40 μM (Km app) or 1 mM ATP, 15 nM JAK1
T2 construct: purchased Invitrogen Corporation, Carlsbad, Calif; PV4775
T2 sequence (P23458 whole entry): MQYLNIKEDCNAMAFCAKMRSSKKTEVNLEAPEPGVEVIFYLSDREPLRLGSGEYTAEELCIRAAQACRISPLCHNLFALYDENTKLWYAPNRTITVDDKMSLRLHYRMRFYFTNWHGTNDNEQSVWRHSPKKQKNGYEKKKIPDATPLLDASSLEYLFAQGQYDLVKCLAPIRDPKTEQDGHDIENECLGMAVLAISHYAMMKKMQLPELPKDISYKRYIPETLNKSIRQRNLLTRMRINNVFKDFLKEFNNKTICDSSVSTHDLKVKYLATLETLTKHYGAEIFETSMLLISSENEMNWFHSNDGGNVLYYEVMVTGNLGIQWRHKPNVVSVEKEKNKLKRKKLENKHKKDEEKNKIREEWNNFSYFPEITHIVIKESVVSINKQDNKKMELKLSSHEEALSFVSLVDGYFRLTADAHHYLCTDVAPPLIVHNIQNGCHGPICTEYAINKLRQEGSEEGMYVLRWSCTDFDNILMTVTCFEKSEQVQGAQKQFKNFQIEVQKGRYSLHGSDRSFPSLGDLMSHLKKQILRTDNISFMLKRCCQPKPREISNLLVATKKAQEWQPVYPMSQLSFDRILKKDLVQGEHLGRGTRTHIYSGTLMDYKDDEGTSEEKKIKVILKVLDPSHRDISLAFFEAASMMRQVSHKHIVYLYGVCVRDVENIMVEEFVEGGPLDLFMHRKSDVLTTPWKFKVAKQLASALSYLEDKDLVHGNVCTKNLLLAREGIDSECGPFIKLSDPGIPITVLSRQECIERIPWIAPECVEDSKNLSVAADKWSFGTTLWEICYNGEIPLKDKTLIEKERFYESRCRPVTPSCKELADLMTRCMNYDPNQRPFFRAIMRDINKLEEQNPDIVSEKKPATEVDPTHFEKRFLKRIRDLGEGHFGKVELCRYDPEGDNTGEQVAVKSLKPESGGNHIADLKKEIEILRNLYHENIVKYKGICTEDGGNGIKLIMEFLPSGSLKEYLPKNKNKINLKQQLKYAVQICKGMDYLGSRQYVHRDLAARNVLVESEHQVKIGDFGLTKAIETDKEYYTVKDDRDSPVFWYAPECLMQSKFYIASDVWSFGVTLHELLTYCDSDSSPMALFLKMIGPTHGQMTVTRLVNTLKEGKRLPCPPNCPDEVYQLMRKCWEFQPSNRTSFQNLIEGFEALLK

JAK2 = target: T3, JAK2 (Homo sapiens, UniProt O60674); test: JAK2 Inhibition Assay (Omnia kinase fluorescence peptide substrate assay); conditions: averaged IC50 ranges; assay of Example C; 25 μM (Km app) or 1 mM ATP, 5 nM JAK2
T3 construct: purchased Invitrogen Corporation, Carlsbad, Calif; PV4288
T3 sequence (O60674 whole entry): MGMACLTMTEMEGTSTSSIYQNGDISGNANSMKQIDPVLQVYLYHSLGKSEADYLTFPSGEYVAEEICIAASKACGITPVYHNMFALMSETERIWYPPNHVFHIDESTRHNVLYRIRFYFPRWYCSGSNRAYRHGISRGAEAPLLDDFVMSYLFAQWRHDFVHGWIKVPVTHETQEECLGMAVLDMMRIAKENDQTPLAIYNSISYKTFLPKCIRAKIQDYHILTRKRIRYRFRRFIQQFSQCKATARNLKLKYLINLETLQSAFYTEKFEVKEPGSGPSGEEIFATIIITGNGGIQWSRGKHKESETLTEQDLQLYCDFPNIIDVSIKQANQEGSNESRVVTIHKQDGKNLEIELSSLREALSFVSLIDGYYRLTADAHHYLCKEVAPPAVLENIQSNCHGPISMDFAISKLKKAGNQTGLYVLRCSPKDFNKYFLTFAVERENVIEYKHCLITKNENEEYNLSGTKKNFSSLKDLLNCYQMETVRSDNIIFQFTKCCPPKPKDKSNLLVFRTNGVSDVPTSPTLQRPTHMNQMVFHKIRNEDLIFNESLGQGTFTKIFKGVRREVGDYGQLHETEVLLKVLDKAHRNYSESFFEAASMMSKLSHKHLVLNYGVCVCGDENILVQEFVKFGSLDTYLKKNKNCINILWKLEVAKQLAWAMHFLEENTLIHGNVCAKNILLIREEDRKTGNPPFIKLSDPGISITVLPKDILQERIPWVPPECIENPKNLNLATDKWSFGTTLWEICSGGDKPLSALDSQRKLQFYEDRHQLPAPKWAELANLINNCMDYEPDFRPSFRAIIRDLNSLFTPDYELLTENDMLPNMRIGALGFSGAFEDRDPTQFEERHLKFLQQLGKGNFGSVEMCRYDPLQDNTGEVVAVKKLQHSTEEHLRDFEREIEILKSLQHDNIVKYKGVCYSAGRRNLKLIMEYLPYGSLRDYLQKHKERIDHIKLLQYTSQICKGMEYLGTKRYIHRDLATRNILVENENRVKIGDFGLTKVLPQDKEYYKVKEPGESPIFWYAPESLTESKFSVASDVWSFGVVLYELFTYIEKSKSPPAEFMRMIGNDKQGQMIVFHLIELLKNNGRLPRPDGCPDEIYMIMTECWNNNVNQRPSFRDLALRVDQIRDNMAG
Outline: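 A 10-point, 3-fold compound series (top 10 μM, 2% DMSO) was tested against 5 nM JAK2 with 10 μM Omnia Y7 substrate and either 1 mM or 25 μM (Km app) ATP. Buffer: pH 7.4 HEPES, MgCl2, Triton X-100, DTT. Sox fluorescence was monitored kinetically for 45 min; IC50 is the concentration giving 50 POC on a 4-parameter fit.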

JAK3 = target: T4, JAK3 (Homo sapiens, UniProt P52333); test: JAK3 Inhibition Assay (Omnia kinase fluorescence peptide substrate assay); conditions: averaged IC50 ranges; assay of Example D; 10 μM (Km app) or 1 mM ATP, 2.5 nM JAK3
T4 construct: purchased Invitrogen Corporation, Carlsbad, Calif; PV4080
T4 sequence (P52333 1-1124): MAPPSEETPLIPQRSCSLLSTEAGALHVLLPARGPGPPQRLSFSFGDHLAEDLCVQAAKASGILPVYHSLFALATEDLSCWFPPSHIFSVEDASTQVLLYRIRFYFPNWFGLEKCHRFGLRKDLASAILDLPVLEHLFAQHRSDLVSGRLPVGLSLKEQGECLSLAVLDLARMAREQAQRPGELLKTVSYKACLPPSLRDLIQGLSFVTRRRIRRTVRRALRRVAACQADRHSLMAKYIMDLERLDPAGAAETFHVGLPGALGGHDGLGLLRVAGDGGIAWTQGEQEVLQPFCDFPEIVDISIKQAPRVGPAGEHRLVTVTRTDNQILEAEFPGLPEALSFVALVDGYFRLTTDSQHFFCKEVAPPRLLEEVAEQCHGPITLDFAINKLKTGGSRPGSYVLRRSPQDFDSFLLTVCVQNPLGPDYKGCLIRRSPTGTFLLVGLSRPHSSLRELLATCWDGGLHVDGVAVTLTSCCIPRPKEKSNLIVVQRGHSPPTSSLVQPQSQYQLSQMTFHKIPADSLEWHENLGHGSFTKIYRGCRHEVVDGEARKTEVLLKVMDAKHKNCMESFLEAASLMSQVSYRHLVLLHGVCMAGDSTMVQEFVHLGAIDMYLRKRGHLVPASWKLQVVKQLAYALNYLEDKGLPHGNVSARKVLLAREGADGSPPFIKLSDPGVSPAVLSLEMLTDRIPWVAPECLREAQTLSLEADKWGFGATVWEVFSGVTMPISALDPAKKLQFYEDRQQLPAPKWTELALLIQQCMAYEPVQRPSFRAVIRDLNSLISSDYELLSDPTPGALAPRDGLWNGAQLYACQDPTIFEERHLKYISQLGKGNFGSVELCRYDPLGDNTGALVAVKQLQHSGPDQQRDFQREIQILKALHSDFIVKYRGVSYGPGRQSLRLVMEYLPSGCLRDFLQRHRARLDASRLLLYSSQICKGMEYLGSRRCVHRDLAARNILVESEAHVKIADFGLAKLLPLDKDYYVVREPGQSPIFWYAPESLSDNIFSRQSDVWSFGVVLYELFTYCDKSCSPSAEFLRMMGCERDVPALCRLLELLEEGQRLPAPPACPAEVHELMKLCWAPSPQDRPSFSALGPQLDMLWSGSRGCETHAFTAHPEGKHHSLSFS
Outline: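 Kinase at 2.5 nM with 10 µM Omnia Y7 peptide and 10 µM (Km app) or 1 mM ATP in 25 mM HEPES pH 7.4, 10 mM MgCl2, 1 mM DTT, 0.01% Triton X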

Row | Compound | IC50 (Human Tyk2 kinase domain) [µM] | IC50 (JAK1) [µM] | IC50 (JAK2) [µM] | IC50 (JAK3) [µM]
1 | Cn1cc(-c2cc3nccn3c(-c3cnn(C4(CC#N)CN(C(=O)C5(C(F)(F)F)CC5)C4)c3)n2)cn1 [Example 65, 2-(3-(4-(7-(1-Methyl-1H-pyrazol-4-yl)imidazo[1,2-c]pyrimidin-5-yl)-1H-pyrazol-1-yl)-1-(1-(trifluoromethyl)cyclopropanecarbonyl)azetidin-3-yl)acetonitrile] | 0.01 to 0.1 | 0.01 to 0.1 | 0.01 to 0.1 | 0.1 to 1
2 | Cn1cc(-c2cc3nccn3c(-c3cnn(C4(CC#N)CN(C5CC5)C4)c3)n2)cn1 [Example 66, 2-(1-Cyclopropyl-3-(4-(7-(1-methyl-1H-pyrazol-4-yl)imidazo[1,2-c]pyrimidin-5-yl)-1H-pyrazol-1-yl)azetidin-3-yl)acetonitrile] | 0.01 to 0.1 | 0.1 to 1 | 0.1 to 1 | > 1
3 | Cn1cc(-c2cc3nccn3c(-c3cnn(C4(CC#N)CN(C5COC5)C4)c3)n2)cn1 [Example 67, 2-(3-(4-(7-(1-Methyl-1H-pyrazol-4-yl)imidazo[1,2-c]pyrimidin-5-yl)-1H-pyrazol-1-yl)-1-(oxetan-3-yl)azetidin-3-yl)acetonitrile] | 0.01 to 0.1 | > 1 | 0.1 to 1 | > 1
4 | Cn1cc(-c2cc3nccn3c(-c3cnn(C4(CC#N)CN(c5ncccn5)C4)c3)n2)cn1 [Example 68, 2-(3-(4-(7-(1-Methyl-1H-pyrazol-4-yl)imidazo[1,2-c]pyrimidin-5-yl)-1H-pyrazol-1-yl)-1-(pyrimidin-2-yl)azetidin-3-yl)acetonitrile] | 0.1 to 1 | > 1 | > 1 | > 1
5 | Cn1cc(-c2cc3nccn3c(-c3cnn(C4(CC#N)CN(CC(F)F)C4)c3)n2)cn1 [Example 69, 2-(1-(2,2-dDifluoroethyl)-3-(4-(7-(1-methyl-1H-pyrazol-4-yl)imidazo[1,2-c]pyrimidin-5-yl)-1H-pyrazol-1-yl)azetidin-3-yl)acetonitrile] | < 0.01 | 0.1 to 1 | 0.01 to 0.1 | > 1
6 | Cn1cc(-c2cc3nccn3c(-c3cnn(C4(CC#N)CN(CC(F)(F)C(F)(F)F)C4)c3)n2)cn1 [Example 70, 2-(3-(4-(7-(1-Methyl-1H-pyrazol-4-yl)imidazo[1,2-c]pyrimidin-5-yl)-1H-pyrazol-1-yl)-1-(2,2,3,3,3-pentafluoropropyl)azetidin-3-yl)acetonitrile] | < 0.01 | 0.01 to 0.1 | 0.01 to 0.1 | 0.1 to 1
7 | Cn1cc(-c2cc3nccn3c(-c3cnn(C4(CC#N)CN(CC(F)(F)F)C4)c3)n2)cn1 [Example 71, 2-(3-(4-(7-(1-methyl-1H-pyrazol-4-yl)imidazo[1,2-c]pyrimidin-5-yl)-1H-pyrazol-1-yl)-1-(2,2,2-trifluoroethyl)azetidin-3-yl)acetonitrile] | < 0.01 | 0.1 to 1 | 0.01 to 0.1 | > 1
8 | CCN1CC(CC#N)(n2cc(-c3nc(-c4cnn(C)c4)cc4nccn34)cn2)C1 [Example 72, 2-(1-ethyl-3-(4-(7-(1-methyl-1H-pyrazol-4-yl)imidazo[1,2-c]pyrimidin-5-yl)-1H-pyrazol-1-yl)azetidin-3-yl)acetonitrile] | 0.01 to 0.1 | > 1 | 0.1 to 1 | > 1

Continued, values first:

Row | IC50 (Human Tyk2 kinase domain) [µM] | IC50 (JAK1) [µM] | IC50 (JAK2) [µM] | IC50 (JAK3) [µM] | Compound
9 | < 0.01 | 0.1 to 1 | 0.01 to 0.1 | > 1 | Cn1cc(-c2cc3nccn3c(-c3cnn(C4(CC#N)CN(CC#N)C4)c3)n2)cn1 [Example 73, 2,2′-(3-(4-(7-(1-methyl-1H-pyrazol-4-yl)imidazo[1,2-c]pyrimidin-5-yl)-1H-pyrazol-1-yl)azetidine-1,3-diyl)diacetonitrile]
10 | < 0.01 | 0.1 to 1 | 0.1 to 1 | > 1 | Cn1cc(-c2cc3nccn3c(-c3cnn(C4(CC#N)CN(CCCF)C4)c3)n2)cn1 [Example 74, 2-(1-(3-fluoropropyl)-3-(4-(7-(1-methyl-1H-pyrazol-4-yl)imidazo[1,2-c]pyrimidin-5-yl)-1H-pyrazol-1-yl)azetidin-3-yl)acetonitrile]
11 | 0.1 to 1 | > 1 | > 1 | > 1 | CC#CCN1CC(CC#N)(n2cc(-c3nc(-c4cnn(C)c4)cc4nccn34)cn2)C1 [Example 75, 2-(1-(but-2-ynyl)-3-(4-(7-(1-methyl-1H-pyrazol-4-yl)imidazo[1,2-c]pyrimidin-5-yl)-1H-pyrdzol-1-yl)azetidin-3-yl)acetonitrile]
12 | 0.01 to 0.1 | 0.1 to 1 | 0.1 to 1 | > 1 | C#CCN1CC(CC#N)(n2cc(-c3nc(-c4cnn(C)c4)cc4nccn34)cn2)C1 [Example 76, 2-(3-(4-(7-(1-methyl-1H-pyrazol-4-yl)imidazo[1,2-c]pyrimidin-5-yl)-1H-pyrazol-1-yl)-1-(prop-2-ynyl)azetidin-3-yl)acetonitrile]
13 | < 0.01 | 0.1 to 1 | 0.01 to 0.1 | > 1 | Cn1cc(-c2cc3nccn3c(-c3cnn(C4(CC#N)CN(CCF)C4)c3)n2)cn1 [Example 77, 2-(1-(2-fluoroethyl)-3-(4-(7-(1-methyl-1H-pyrazol-4-yl)imidazo[1,2-c]pyrimidin-5-yl)-1H-pyrazol-1-yl)azetidin-3-yl)acetonitrile]
14 | 0.01 to 0.1 | 0.1 to 1 | 0.1 to 1 | > 1 | Cn1cc(-c2cc3nccn3c(-c3cnn(C4(CC#N)CN(CCC#N)C4)c3)n2)cn1 [Example 78, 3-(3-(cyanomethyl)-3-(4-(7-(1-methyl-1H-pyrazol-4-yl)imidazo[1,2-c]pyrimidin-5-yl)-1H-pyrazol-1-yl)azetidin-1-yl)propanenitrile]
15 | 0.01 to 0.1 | > 1 | 0.1 to 1 | > 1 | Cn1cc(-c2cc3nccn3c(-c3cnn(C4(CC#N)CN(C(CF)CF)C4)c3)n2)cn1 [Example 79, 2-(1-(1,3-difluoropropan-2-yl)-3-(4-(7-(1-methyl-1H-pyrazol-4-yl)imidazo[1,2-c]pyrimidin-5-yl)-1H-pyrazol-1-yl)azetidin-3-yl)acetonitrile]
16 | < 0.01 | 0.1 to 1 | 0.01 to 0.1 | > 1 | Cn1cc(-c2cc3nccn3c(-c3cnn(C4(CC#N)CN(CC(F)(F)C(F)F)C4)c3)n2)cn1 [Example 80, 2-(3-(4-(7-(1-methyl-1H-pyrazol-4-yl)imidazo[1,2-c]pyrimidin-5-yl)-1H-pyrazol-1-yl)-1-(2,2,3,3-tetrafluoropropyl)azetidin-3-yl)acetonitrile]
